Results published in US12319684B2 (Sanford Burnham Prebys Medical Discovery Institute, priority 2014, dated 2025).
Read-outs that look alike come from different tables or passages of the source.

Target: T1, human apelin receptor (APJ, AGTRL-1, APLNR) (Homo sapiens, UniProt P35414)
T1 construct: host or cells: Chinese hamster ovary cells
T1 sequence (P35414 1-380): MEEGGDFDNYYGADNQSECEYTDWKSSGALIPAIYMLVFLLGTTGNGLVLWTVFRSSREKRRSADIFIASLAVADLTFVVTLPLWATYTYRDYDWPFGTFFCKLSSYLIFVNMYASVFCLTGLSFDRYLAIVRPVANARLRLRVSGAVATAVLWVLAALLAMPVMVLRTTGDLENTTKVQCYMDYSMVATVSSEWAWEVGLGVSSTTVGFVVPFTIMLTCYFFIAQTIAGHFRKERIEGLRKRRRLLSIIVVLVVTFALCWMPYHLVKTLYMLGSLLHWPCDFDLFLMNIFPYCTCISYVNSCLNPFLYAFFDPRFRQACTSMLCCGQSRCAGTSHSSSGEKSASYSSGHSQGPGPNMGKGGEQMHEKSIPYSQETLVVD
Assay: APJ cAMP cell-based assay (forskolin-stimulated CHO cells, enzyme fragment complementation)
Details: for EC50: CHO cells expressing human APJ, forskolin-stimulated, 0.5 h incubation, 50% of control (apelin-13, 1 nM) response, read-out: APJ cAMP EC50; for Emax: CHO, 0.5 h, read-out: APJ cAMP % resp (efficacy)
Experimental: The assays disclosed herein were performed using cell lines from DiscoveRx, Inc.
Biological activity was determined in a cell-based assay. This assay detects activation of the receptor by reporting on intracellular cyclic adenosine monophosphate (cAMP) level. Chinese hamster ovary cells engineered to express a stably integrated human apelin receptor (APJ, AGTRL-1, APLNR), were plated into the wells of a microtiter plate. Cells were stimulated with forskolin to increase intracellular cAMP. Immediately following, compounds were added at a range of final concentrations 0.0-100 μM, in DMSO (not to exceed a final DMSO concentration of >1% v/v), and allowed to incubate with the cells for 0.5 h. At the end of the incubation, cells were lysed to stop APJ signaling, and cAMP was quantified using a commercially available assay kit that applies enzyme fragment complementation technology and bioluminescence, in a competitive ELISA format.
Compound efficacy (% resp) is reported as a percentage of the maximal apelin-13 response at 1 nM (control).

[1] = percentage of the maximal apelin-13 response at 1 nM (control)

Row | SMILES | EC50 [µM] | Emax [1] [%] | Emax [%]
1 | COc1ccccc1-n1c(SCc2cc(=O)n3cc(C)ccc3n2)nnc1-c1ccco1 [Example 2, 2-[5-Furan-2-yl-4-(2-methoxy-phenyl)-4H-[1,2,4]triazol-3-ylsulfanylmethyl]-7-methyl-pyrido[1,2-a]pyrimidin-4-one] | 0.31 | 154 | –
2 | COc1ccccc1-n1c(SCc2cc(=O)n3cc(C)ccc3n2)nnc1-c1ccccc1 [Example 3, 2-[4-(2-Methoxy-phenyl)-5-phenyl-4H-[1,2,4]triazol-3-ylsulfanylmethyl]-7-methyl-pyrido[1,2-a]pyrimidin-4-one] | 6.16 | 136 | –
3 | COc1ccccc1-n1c(SCc2cc(=O)n3cc(C)ccc3n2)nnc1-c1ccncc1 [Example 4, 2-[4-(2-Methoxy-phenyl)-5-pyridin-4-yl-4H-[1,2,4]triazol-3-ylsulfanylmethyl]-7-methyl-pyrido[1,2-a]pyrimidin-4-one] | 3.09 | 80 | –
4 | COc1ccccc1-n1c(SCc2cc(=O)n3cc(C)ccc3n2)nnc1-c1ccc(C)cc1 [Example 5, 2-[4-(2-Methoxy-phenyl)-5-p-tolyl-4H-[1,2,4]triazol-3-ylsulfanylmethyl]-7-methyl-pyrido[1,2-a]pyrimidin-4-one] | 1.51 | 126 | –
5 | COc1ccccc1-n1c(SCc2cc(=O)n3cc(C)ccc3n2)nnc1-c1ccc(N(C)C)cc1 [Example 6, 2-[5-(4-Dimethylamino-phenyl)-4-(2-methoxy-phenyl)-4H-[1,2,4]triazol-3-ylsulfanylmethyl]-7-methyl-pyrido[1,2-a]pyrimidin-4-one] | 13.6 | 176 | –
6 | COc1ccccc1-n1c(SCc2cc(=O)n3cc(C)ccc3n2)nnc1-c1ccc([N+](=O)[O-])cc1 [Example 7, 2-[4-(2-Methoxy-phenyl)-5-(4-nitro-phenyl)-4H-[1,2,4]triazol-3-ylsulfanylmethyl]-7-methyl-pyrido[1,2-a]pyrimidin-4-one] | 6.63 | 51 | –
7 | COc1ccccc1-n1c(SCc2cc(=O)n3cc(C)ccc3n2)nnc1-c1ccc(Br)s1 [Example 8, 2-[5-(5-Bromo-thiophen-2-yl)-4-(2-methoxy-phenyl)-4H-[1,2,4]triazol-3-ylsulfanylmethyl]-7-methyl-pyrido[1,2-a]pyrimidin-4-one] | 0.551 | 137 | –
8 | COc1ccccc1-n1c(SCc2cc(=O)n3cc(C)ccc3n2)nnc1-c1ccc(Cl)s1 [Example 9, 2-[5-(5-Chloro-thiophen-2-yl)-4-(2-methoxy-phenyl)-4H-[1,2,4]triazol-3-ylsulfanylmethyl]-7-methyl-pyrido[1,2-a]pyrimidin-4-one] | 0.455 | 136 | –
9 | COc1ccccc1-n1c(SCc2cc(=O)n3cc(C)ccc3n2)nnc1-c1ccc(Br)o1 [Example 10, 2-[5-(5-Bromo-furan-2-yl)-4-(2-methoxy-phenyl)-4H-[1,2,4]triazol-3-ylsulfanylmethyl]-7-methyl-pyrido[1,2-a]pyrimidin-4-one] | 0.0182 | 150 | –
10 | COc1ccccc1-n1c(SCc2cc(=O)n3cc(C)ccc3n2)nnc1-c1ccc(C)s1 [Example 11, 2-[4-(2-Methoxy-phenyl)-5-(5-methyl-thiophen-2-yl)-4H-[1,2,4]triazol-3-ylsulfanylmethyl]-7-methyl-pyrido[1,2-a]pyrimidin-4-one] | 0.0704 | 118 | –
11 | COc1ccccc1-n1c(SCc2cc(=O)n3cc(C)ccc3n2)nnc1-c1sccc1C [Example 12, 2-[4-(2-Methoxy-phenyl)-5-(3-methyl-thiophen-2-yl)-4H-[1,2,4]triazol-3-ylsulfanylmethyl]-7-methyl-pyrido[1,2-a]pyrimidin-4-one] | 1.49 | 89 | –
12 | COc1ccccc1-n1c(SCc2cc(=O)n3cc(C)ccc3n2)nnc1-c1ccc(C#N)cc1 [Example 13, 4-[4-(2-Methoxy-phenyl)-5-(7-methyl-4-oxo-4H-pyrido[1,2-a]pyrimidin-2-ylmethylsulfanyl)-4H-[1,2,4]triazol-3-yl]-benzonitrile] | 1.42 | 94 | –
13 | COc1ccccc1-n1c(SCc2cc(=O)n3cc(C)ccc3n2)nnc1-c1nccs1 [Example 14, 2-[4-(2-Methoxy-phenyl)-5-thiazol-2-yl-4H-[1,2,4]triazol-3-ylsulfanylmethyl]-7-methyl-pyrido[1,2-a]pyrimidin-4-one] | 0.772 | 105 | –
14 | COc1ccccc1-n1c(SCc2cc(=O)n3cc(C)ccc3n2)nnc1-c1ccc(C)o1 [Example 15, 2-[4-(2-Methoxy-phenyl)-5-(5-methyl-furan-2-yl)-4H-[1,2,4]triazol-3-ylsulfanylmethyl]-7-methyl-pyrido[1,2-a]pyrimidin-4-one] | 0.00444 | 52 | –
15 | COc1ccccc1-n1c(SCc2cc(=O)n3cc(C)ccc3n2)nnc1-c1ccoc1 [Example 16, 2-[5-Furan-3-yl-4-(2-methoxy-phenyl)-4H-[1,2,4]triazol-3-ylsulfanylmethyl]-7-methyl-pyrido[1,2-a]pyrimidin-4-one] | 0.0968 | 84 | –
16 | COc1ccccc1-n1c(SCc2cc(=O)n3cc(C)ccc3n2)nnc1-c1ccsc1 [Example 17, 2-[4-(2-Methoxy-phenyl)-5-thiophen-3-yl-4H-[1,2,4]triazol-3-ylsulfanylmethyl]-7-methyl-pyrido[1,2-a]pyrimidin-4-one] | 0.09 | 109 | –
17 | COc1ccccc1-n1c(SCc2cc(=O)n3cc(C)ccc3n2)nnc1-c1cccn1C [Example 18, 2-[4-(2-Methoxy-phenyl)-5-(1-methyl-1H-pyrrol-2-yl)-4H-[1,2,4]triazol-3-ylsulfanylmethyl]-7-methyl-pyrido[1,2-a]pyrimidin-4-one] | 1.7 | 58 | –
18 | COc1ccccc1-n1c(SCc2cc(=O)n3cc(C)ccc3n2)nnc1-c1nccn1C [Example 19, 2-[4-(2-Methoxy-phenyl)-5-(1-methyl-1H-imidazol-2-yl)-4H-[1,2,4]triazol-3-ylsulfanylmethyl]-7-methyl-pyrido[1,2-a]pyrimidin-4-one] | > 10 | 57 | –
19 | COc1ccc(-n2c(SCc3cc(=O)n4cc(C)ccc4n3)nnc2-c2cccs2)cc1 [Example 20, 2-[4-(4-Methoxy-phenyl)-5-thiophen-2-yl-4H-[1,2,4]triazol-3-ylsulfanylmethyl]-7-methyl-pyrido[1,2-a]pyrimidin-4-one] | 5 | – | 10
20 | Cc1cccc(-n2c(SCc3cc(=O)n4cc(C)ccc4n3)nnc2-c2cccs2)c1 [Example 21, 7-Methyl-2-(5-thiophen-2-yl-4-m-tolyl-4H-[1,2,4]triazol-3-ylsulfanylmethyl)-pyrido[1,2-a]pyrimidin-4-one] | 2.37 | 113 | –
21 | COc1cccc(-n2c(SCc3cc(=O)n4cc(C)ccc4n3)nnc2-c2cccs2)c1 [Example 22, 2-[4-(3-Methoxy-phenyl)-5-thiophen-2-yl-4H-[1,2,4]triazol-3-ylsulfanylmethyl]-7-methyl-pyrido[1,2-a]pyrimidin-4-one] | 1.24 | 134 | –
22 | Cc1ccc2nc(CSc3nnc(-c4cccs4)n3-c3ccccc3C)cc(=O)n2c1 [Example 23, 7-Methyl-2-(5-thiophen-2-yl-4-o-tolyl-4H-[1,2,4]triazol-3-ylsulfanylmethyl)-pyrido[1,2-a]pyrimidin-4-one] | 0.179 | 109 | –
